Where two headings read alike, the source gives them in different places.
Legend:
AGS gastric cancer cells = experiment: MTT survival assay, dark or white-light irradiation; type: cell-based, human; conditions: for IC50: 8 h incubation, MTT after 48 h; for PI (phototoxicity index): IC50 dark/light ratio
Protocol: To assess the anticancer potential of compounds, the cytotoxicity was evaluated on the gastric cancer cell line AGS. The cells were treated in the dark for 8 h with increasing concentrations of the different compounds (Table 2). Cisplatin was used as a positive cytotoxic and clinically used drug control, and verteporfin (VP) or protoporphyrin-IX (PpIX) were used as positive PDT controls. Cells were then irradiated for 15 min with white light or kept in the dark and further cultivated for 48h in the dark. An MTT test was then performed to evaluate the impact of the different treatments on cell survival. […] The lower cytotoxicity of Ru-2 is most likely due to its low stability in biological media, as determined by stability tests in PBS/DMSO.
The human gastric adenocarcinoma (AGS) cell line was acquired from ATCC (Manassa, VA). AGS cells were cultured in RPMI 1640 medium (Roswell Park Memorial Institute) containing 10% fetal bovine serum (FBS) at 37 °C in a humidified atmosphere of 95% air and 5% CO2.
The antiproliferative activity of cancer cells was determined by the 3-(4,5-dimethylthiazol-2-yl)-2,5-diphenyltetrazolium bromide (MTT) assay. Cells were seeded at 10.000 cells per well (200 μL) in Cellstar 96-well plates (Greiner Bio-One) and further incubated for 24 h. Cells were treated with each compound at different concentrations for 8 h in the dark. After this time, the medium was removed, fresh medium was added, and cells were kept in the dark or irradiated with white light for 15 min. Subsequently, the plates were incubated in the dark for an additional 48 h, and the MTT assay was performed as previously described in the literature.[34] Measurements were performed at 550 nm with the Tristar2Multimode Reader (Berthold Technologies).

[1] = Fluorescence quantum yield; type: physicochemical; conditions: DMSO, ligands excited at 503 nm, ruthenium complexes at 573 nm, relative to verteporfin
Protocol: Emission spectra were measured in DMSO. The free ligands were excited at 503 nm, while the ruthenium complexes were excited at 573 nm. For the calculation of fluorescence quantum yield, verteporfin (Φf = 0.0085) was used as a reference.[46] In all metal-free compounds, an intense emission band at approximately 630–670 nm and a small band at approximately 700–750 nm were observed, assigned to Q (0–0) and Q (1–0) transitions, respectively.[48] […] A similar behavior has been observed in palladium(II) and nickel(II) metaloporphyrins, where the fluorescence was quenched due to electron or energy transfer.[49]
The fluorescence quantum yields were determined using verteporfin in DMSO as a reference (Φf = 0.0085).[46],[89] The free ligands were excited at 503 nm, and the ruthenium complexes at 573 nm. The quantum yield was calculated following eq 1.[90],[91] [drawing 1] 1 Where ST and X are standard and analyte, respectively, Φf is the fluorescence quantum yield, Grad is the gradient from the area of integration fluorescence intensity vs absorbance, and ηX and ηST are the refractive index of the solvent used to measure the fluorescence spectrum of the analyte and the standard, respectively.

[2] = Shake-flask partition coefficient, 1-octanol/PBS; type: physicochemical; conditions: average of three independent experiments at 27 °C
Excerpt: The n-octanol/water partition coefficient (log Po/w) is a well-established parameter that helps to predict the biological activity of drugs and other biologically active compounds.[56] The so-called “shake-flask” method was adopted to determine the partition coefficient using 1-octanol and PBS (phosphate-buffered saline) as solvents.[57] All the porphyrin derivatives presented low lipophilicity values. At the same time, the chlorin compounds were much more lipophilic as expected due to the reduction of one of the pyrrole rings and the formation of the new ring in the chlorin.
The partition coefficient (log Po/PBS) of each compound was determined experimentally by the “shake-flask” method at room temperature following reported methods.[57],[96] A mixture of 1-octanol and PBS in equal amounts was shaken for 24 h, after which the phases were allowed to separate for 24 h. Then, a 1 × 10^–5 M solution of each compound is prepared in 1-octanol/PBS (1:1), and the mixture is left to stir for 24 h. After 24 h of stirring, the mixture is left for 24 h to separate the two phases. Finally, the concentration of each compound in the two phases is determined by UV–vis spectroscopy. logP was determined by the following eq 3.[97] [drawing 3] 3 Where Aap is the absorbance after partition, and Abp is the absorbance before partition.

COX2 = experiment: Western blot of COX2 in AGS cells; type: cell-based, human; conditions: IC50 concentration 4 h; for COX2 expression in the dark: kept in the dark
Protocol: (§1) Figure 12 Effects of photoactivation of 1, Ru-1, 3B and Ru-3B on protein expression of ferroptosis and inflammation markers in AGS gastric cancer cells. […] (a) Expression of the different markers was determined by Western blot. GAPDH was used as a loading control. Representative Western blot of three independent experiments. ctl = control, untreated cells. Graphs represent the quantification of three independent experiments of GPX4 (b) and COX2 (c) expression, compared to not-treated AGS cells (ctl) and normalized to GAPDH expression. Bars above the colons indicate the comparison of dark versus light for each compound. The dark and light results of each compound were compared to those of the respective untreated control condition (ctl). Statistical analysis: 2-way Anova *<0.05, **<0.01, ***<0.001, ns = not-significant.
COX2 is known for its central role in inflammation and prostaglandins (PGs) production. In normal cells, COX2 expression is almost absent, whereas in cancer cells, it is frequently overexpressed.[84] Importantly, it has been shown that in cancers, COX2 is not only a mediator of inflammation but could also be a mediator of oxidative stress and inhibition of apoptosis, as well as cancer cell proliferation.[85]
Cells were then lysed in lysis buffer (50 mM Tris–HCl pH 6.7, NaCl 150 mM, NP40 1%). Total protein concentration was determined using Bradford assay and adjusted to the same quantity (50 μg) for each experiment. A total of 30 μg of proteins were resolved by 6–15% SDS-PAGE (depending on protein molecular weight) and transferred to nitrocellulose blotting membranes according to standard methods. Membranes were blocked with blocking buffer (containing 5% milk powder or 1% BSA) for 1 h at room temperature, then washed three times with TBST or PBST (containing 0.1% Tween-20) and incubated with primary antibodies at 4 °C overnight. The following day, the membranes were washed thrice with […]. […] Protein bands were quantified using ImageJ software.[99] […]

LC3B = experiment: Western blot of LC3B-I/II in AGS cells; type: cell-based, human; conditions: IC50 concentration 4 h, white light 15 min, 24 h in the dark
Excerpt: (§2) The therapeutic effects of PDT treatment on cancer cells are thought to be mainly related to ROS production, which are highly reactive and cytotoxic species that can induce cell death by apoptosis.[62] It has also been shown that ruthenium compounds can induce different cell death pathways.[63],[64] For these reasons, we initially analyzed by Western blot the expression of cleaved caspase 3 and PARP, which are two well-known markers for programmed cell death apoptosis.[65]−[70] […] The cells were then further cultivated in the dark for 24 h. […] Then, the protein expression of CHOP, a key component of the endoplasmic reticulum (ER) stress-mediated apoptosis pathway and known to be induced by ruthenium compounds, was evaluated.[71],[72] […] To investigate this, the expression and conversion of LC3B–I to LC3B–II was analyzed by Western blot (Figure 11).
(§3) Figure 11 Effects of photoactivation of 1, Ru-1, 3B, and Ru-3B on protein expression on different cell death markers in AGS gastric cancer cells. […] Protein extraction was performed, and expression of the different markers was determined by Western blot. […]
(§4) Cells were then lysed in lysis buffer (50 mM Tris–HCl pH 6.7, NaCl 150 mM, NP40 1%). Total protein concentration was determined using Bradford assay and adjusted to the same quantity (50 μg) for each experiment. […] Protein bands were quantified using ImageJ software.[99] […]

GPX4 = experiment: Western blot of GPX4 in AGS cells; type: cell-based, human; conditions: IC50 concentration 4 h, white light 15 min, 24 h in the dark
Protocol: Ferroptosis, another form of nonapoptotic cell death, can promote inflammation and is triggered by iron-catalyzed lipid peroxidation via Fenton-type reactions, where the main ROS responsible for lipid damage are hydroxyl radical and superoxide radical.[81],[82] Glutathione peroxidase (GPX4) can suppress lipid peroxidation and protect cells from ferroptosis.[83] To investigate the impact of the different compounds on GPX4 expression, AGS cells were treated as described above, and then GPX4 expression was analyzed by Western blot (Figure 12a).
as §1, with “Bars above the colons indicate the comparison of dark versus light for each compound. The dark and light results of each compound were compared to those of the respective untreated control condition (ctl). Statistical analysis: 2-way Anova *<0.05, **<0.01, ***<0.001, ns = not-significant.” left out
as §4

[3] = tested on: cleaved caspase 3 and PARP; experiment: Western blot of apoptosis markers in AGS cells; type: cell-based, human; conditions: IC50 concentration 4 h, white light 15 min, 24 h in the dark
Excerpt: as §2, §3, §4

[4] = Homo sapiens, AGS, kept in dark, N = 3, read-out: IC50 dark
[5] = Homo sapiens, AGS, white light 15 min, N = 3, read-out: IC50 light

| Compound | Φf luminescence quantum yield [1] [%] | log PO/PBS [2] | IC50 (AGS gastric cancer cells; [4]) [nM] | IC50 (AGS gastric cancer cells; [5]) [nM] | COX2 expression in the dark (COX2) | IC50 (AGS gastric cancer cells; white light 15 min, N = 3, read-out: IC50 light) [nM] | LC3B-I/II expression (LC3B) | PI (phototoxicity index) (AGS gastric cancer cells) | GPX4 expression (GPX4) | IC50 (AGS gastric cancer cells; kept in dark, N = 3, read-out: IC50 dark) [nM] | cleavage of caspase 3 and PARP [3] | COX2 expression upon light irradiation (COX2; white light 15 min, 24 h in the dark, vs untreated) |
| --- | --- | --- | --- | --- | --- | --- | --- | --- | --- | --- | --- | --- |
| C=Cc1c(C)c2cc3nc(cc4[nH]c(cc5nc(cc1[nH]2)C(C)=C5CCC(=O)OC)c(CCC(=O)OC)c4C)C1(C)C3=CCC(C(=O)OC)=C1C(=O)OC (stereo not drawn) [3A] | 1.2 | 1.478 ± 0.083 | > 100000 | 100 ± 60 | – | – | – | – | – | – | – | – |
| C=Cc1c(C)c2cc3nc(cc4[nH]c(cc5nc(cc1[nH]2)C1(C)C5=CCC(C(=O)OC)=C1C(=O)OC)c(C)c4CCC(=O)OC)C(CCC(=O)OC)=C3C (stereo not drawn) [3B] | 1.2 | 1.661 ± 0.088 | > 100000 | 180 | reduction in COX2 expression in the dark | 200 ± 21 | marked induction of LC3B–I/II expression | – | – | – | – | – |
| C=CC1=C(C)c2cc3[nH]c(cc4nc(cc5[nH]c(cc1n2)c(C)c5CCC(=O)O)C(CCC(=O)O)=C4C)c(C)c3C=C [PpIX, protoporphyrin IX] | – | – | > 100000 | 500 | reduction in COX2 expression in the dark | – | – | >200 | decrease in GPX4 expression | – | – | – |
| N.N.[Cl][Pt][Cl] [cisplatin, reference compound] | – | – | – | – | – | – | – | – | – | 29000 | – | – |
| C=CC1=C(C)c2cc3[nH]c(cc4nc(cc5[nH]c(cc1n2)c(C)c5CCC(=O)OC)C(CCC(=O)OC)=C4C)c(C)c3C=C [compound 1] | 0.80 | 0.957 ± 0.056 | > 100000 | 1700 ± 184 | – | – | – | > 17 | – | – | as efficient as VP | significantly reduce COX2 expression |
| C=CC1=C(C)c2cc3[nH]c(cc4nc(cc5[nH]c(cc1n2)c(C)c5CCC(=O)OCc1ccccc1)C(CCC(=O)OCc1ccccc1)=C4C)c(C)c3C=C [compound 2] | 0.80 | 1.063 ± 0.142 | > 100000 | 2600 ± 100 | – | – | – | > 18 | – | – | – | – |

The next lines start with results.

| Φf luminescence quantum yield [1] [%] | log PO/PBS [2] | Compound | IC50 (AGS gastric cancer cells; [4]) [nM] | IC50 (AGS gastric cancer cells; [5]) [nM] | COX2 expression in the dark (COX2) | IC50 (AGS gastric cancer cells; white light 15 min, N = 3, read-out: IC50 light) [nM] | LC3B-I/II expression (LC3B) | PI (phototoxicity index) (AGS gastric cancer cells) | GPX4 expression (GPX4) | IC50 (AGS gastric cancer cells; kept in dark, N = 3, read-out: IC50 dark) [nM] | cleavage of caspase 3 and PARP [3] | COX2 expression upon light irradiation (COX2; white light 15 min, 24 h in the dark, vs untreated) |
| --- | --- | --- | --- | --- | --- | --- | --- | --- | --- | --- | --- | --- |
| 1.0 | 1.368 ± 0.042 | C=Cc1c(C)c2cc3nc(cc4[nH]c(cc5nc(cc1[nH]2)C(C)=C5CCC(=O)OCc1ccccc1)c(CCC(=O)OCc1ccccc1)c4C)C1(C)C3=CCC(C(=O)OC)=C1C(=O)OC (stereo not drawn) [4A] | > 100000 | 2500 ± 231 | – | – | – | >40 | – | – | – | – |
| 1.0 | 1.682 ± 0.176 | C=Cc1c(C)c2cc3nc(cc4[nH]c(cc5nc(cc1[nH]2)C1(C)C5=CCC(C(=O)OC)=C1C(=O)OC)c(C)c4CCC(=O)OCc1ccccc1)C(CCC(=O)OCc1ccccc1)=C3C (stereo not drawn) [4B] | > 100000 | 2800 ± 265 | – | – | – | >36 | – | – | – | – |

Source: PMC12093383, “Protoporphyrin IX-Derived Ruthenium(II) Complexes for Photodynamic Therapy in Gastric Cancer Cells” (Inorganic Chemistry, 2025)
